{
  "source": "patent US12564568B2",
  "about": "“PKC pathway in Parkinson's Disease” (CEDARS-SINAI MEDICAL CENTER, priority 2018, dated 2026)",
  "type_in_all_cases": "cell-based, human",
  "key": {"[1]": {"test_system": "tyrosine hydroxylase (TH)", "description": "iPSC maintenance, mDA neuron differentiation and drug treatments: iPSCs were maintained in E8 media on Matrigel and passaged every 5 days at split ratios from 1:6 to 1:12 as needed using Versene. Only iPSCs between passage 17 and passage 35 were used in this study. For differentiation, iPSCs were grown to ˜80% confluency. Cells were singularized with Accutase (Millipore/Sigma #SCR005) (5 minutes at 37° C.) and plated onto Matrigel-coated 6-well plates (BD Biosciences) at 200K cells per cm^2 (for a fully confluent monolayer) in E8 media with 5 μM Y27632 (StemGent). 24 hours after plating, media was changed to Stage 1 (50% DMEM/F12, 50% Neurobasal, N2, B27-Vitamin A, LDN-193189 (LDN), SB431542 (SB)). Stage 1 media was changed each day (3 mL per well) for 3 days. Media was next switched to Stage 2 (50% DMEM/F12, 50% Neurobasal, N2, B27-Vitamin A, LDN, SB, Purmorphamine (PMN), CHIR99021 (CHIR), Sonic hedgehog (SHH), Fibroblast Growth Factor 8 (FGF8)). Stage 2 media was changed each day (3 mL per well) for 4 days. Media was then switched to Stage 3 (50% DMEM/F12, 50% Neurobasal, N2, B27-Vitamin A, LDN, CHIR, all-trans-Retinoic acid (ATRA)). Stage 3 media was changed each day (3 mL per well) for 4 days. Finally, media was switched to Stage 4 (50% DMEM/F12, 50% Neurobasal, N2, B27+Vitamin A, Brain-Derived Neurotrophic Factor (BDNF), Glial Cell Line-Derived Neurotrophic Factor (GDNF), dibutyryl cyclic-AMP sodium salt (dbCAMP), L-Ascorbic Acid (AA), γ-Secretase inhibitor (DAPT), CHIR, Transforming Growth Factor beta-3 (TGF β3)). Stage 4 media was changed each day (3 mL per well) for 3 days. On day 15, cells were dissociated to single cells using Accutase (20 mins at 37° C.) and gently lifted. Dissociated cells were resuspended in Maturation Medium (50% DMEM/F12, 50% Neurobasal, N2, B27+Vitamin A, BDNF, GDNF, dbCAMP, AA, DAPT, TGF3) plus 5 μM Y27632 and reseeded onto Matrigel-coated 6-well plates at 200 k/cm^2 in 1 mL total volume or onto Matrigel-coated L-glass coverslips in a 24-well plate at 200 k/50 μL drop. Cells were allowed to attach for 45 mins at 37° C. and Maturation Medium was then added to final volumes of 3 mL per well for 6-well plates or 1.5 mL per well for 24-well plates with coverslips. A full medium change was performed 48-hours post-seeding and medium was changed every 3 days until day 30. For drug treatments, cells at day-27 were fed with Maturation Medium containing the indicated drug and cells were analyzed at day 30.\nAnalytical flow cytometry: Day-30 cultures in 6-well plates were washed once in phosphate buffered saline (PBS) then 1 mL Accutase was added to each well and incubated for 25 mins at 37° C. or until the cells fully lifted. Cells were washed with an additional 2 mL Maturation Medium and very gently triturated until large clumps were no longer visible at which point cells were pelleted by centrifugation (1500 RPM for 3 mins). Cells were gently resuspended in 4% paraformaldehyde (PFA) in PBS and allowed to fix for 10-15 mins at room temperature. Fixed single cells were permeabilized using 1% Trition X-100 (Sigma-Aldrich) and stained using primary antibodies against TH (1:500 Immunostar, 22941), α-synuclein (1:1000 Abcam, ab138501), and MAP2ab (1:1000 Sigma-Aldrich, M1406), or isotype controls at same dilution (Cell Signaling IgG Isotype Control rabbit #3900S and mouse #5415S). Secondary antibodies (Alexa Fluor 488 and 594 donkey anti-mouse and donkey anti-rabbit, Invitrogen) were used at 1:500. Stained samples were quantified on an LSR Fortessa cytometer using BD FACSDiva software.\nImmunocytochemistry and imaging: mDA neuron cultures were plated on L-glass coverslips and grown as above. Day 30 neurons were fixed in 4% PFA at room temperature for 10-15 mins. […]"}, "α-synuclein": {"test_system": "α-synuclein", "assay": "α-synuclein protein level in day 30 iPSC-derived mDA (DaN) cultures after drug treatment (western blot, immunostaining)", "conditions": "in vitro, single 24-hour dose"}, "SNCA": {"test_system": "SNCA", "assay": "SNCA gene expression over PEP005 time-course (qPCR)", "conditions": "4 hours after PEP005 treatment", "description": "(§1) qPCR: Total cellular RNA was isolated using TRIzol Reagent followed by Qiagen RNeasy Mini kit with DNase treatment. Total RNA (1 μg) was used for cDNA synthesis using the Quantitate Reverse Transcription Kit for cDNA synthesis for PCR (Qiagen). Real-time PCR was performed using the SYBR Green Supermix (BIO-RAD). The levels of expression of respective genes were normalized to corresponding GAPDH values and shown as fold change relative to the value of the control sample (ΔΔCt method)"}, "LAMP1": {"test_system": "LAMP1", "assay": "LAMP1 level in day 30 mDA cultures after PEP005 (western blot)"}, "TH": {"test_system": "TH", "assay": "TH gene expression over PEP005 time-course (qPCR)", "conditions": "roughly 8 hours after initial exposure", "description": "as §1"}},
  "data": [
    {"smiles": "C/C=C(/C)C(=O)O[C@H]1C(C)=C[C@]23C(=O)[C@@H](C=C(CO)[C@@H](O)[C@]12O)[C@H]1[C@@H](C[C@H]3C)C1(C)C", "note": "[PEP005, ingenol-3-angelate]", "values": [
      {"measurement": "TH by immunostaining", "setting": "[1]; PEP005-treated mDA cultures", "value": "enhanced"},
      {"measurement": "amount of TH enzyme present", "setting": "[1]; both control and PD cultures, 3 days treatment from day 27, listed as PEP", "value": "increase"},
      {"measurement": "number of TH neurons (flow cytometry)", "setting": "[1]; d30 mDA cultures, PEP005 72 hrs", "value": "did not result in an increased number"},
      {"measurement": "level of TH expression in neurons (flow cytometry)", "setting": "[1]; d30 mDA cultures, PEP005 72 hrs, relative to untreated", "value": "significantly higher levels"},
      {"measurement": "duration for which synuclein levels remained depressed", "setting": "α-synuclein", "value": 168, "unit": "h"},
      {"measurement": "SNCA expression (qPCR)", "setting": "SNCA", "value": "downregulated"},
      {"measurement": "LAMP1 protein", "setting": "LAMP1; PD cells treated with PEP005", "value": "does not appear to be replicated"},
      {"measurement": "LAMP1 protein", "setting": "LAMP1; PD cells treated with PEP005, listed as PEP", "value": "neither LAMP1 nor LC3 respond"},
      {"measurement": "LAMP1 protein", "setting": "LAMP1; control and PD cells / all iPSC lines, 1 μM PEP005 for 3 days", "value": "increase"},
      {"measurement": "LAMP1 protein", "setting": "LAMP1; control cells treated with PEP005", "value": "increase"},
      {"measurement": "TH expression (qPCR)", "setting": "TH", "value": "upregulated"}
    ]}
  ]
}
